{"source": "paper PMC11952846", "about": "“The sterol-regulating human ARV1 binds cholesterol and phospholipids through its conserved ARV1 homology domain” (The Journal of Biological Chemistry, 2025)", "key": {"[1]": {"target": "T1, GST-ARV1 (full-length ARV1) (Homo sapiens, UniProt Q9H2C2)", "T1 construct": "Expresses full length ARV1; made in house; host or cells: E. coli BL21 (pGEX-4T1)", "T1 sequence (Q9H2C2 1-271)": "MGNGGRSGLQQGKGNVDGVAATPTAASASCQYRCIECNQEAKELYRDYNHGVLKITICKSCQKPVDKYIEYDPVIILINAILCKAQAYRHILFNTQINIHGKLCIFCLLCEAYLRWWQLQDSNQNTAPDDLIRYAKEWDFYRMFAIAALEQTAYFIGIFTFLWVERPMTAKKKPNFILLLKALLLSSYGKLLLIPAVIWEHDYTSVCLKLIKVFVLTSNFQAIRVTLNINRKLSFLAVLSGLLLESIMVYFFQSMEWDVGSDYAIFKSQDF", "test": "Lipid overlay far western", "format": "binding", "settings": "lipid-embedded membrane strips, incl. sphingolipid strip", "experimental": "(§1) Lipid overlays were blocked in TBST-BSA (100 mM Tris–HCl buffer, pH 7.5, 150 mM NaCl, 0.5% Tween 20, 3% bovine serum albumin) for 1 h and subsequently washed eight separate times with TBST for 2 min each. Overlays were incubated with 0.5 μg/ml GST-tagged or 6XHIS-tagged proteins in 3% TBST-BSA buffer containing 0.1% Triton X-100, for 1 h at room temperature and washed as above. Overlays were incubated with either anti-GST or anti-6XHIS monoclonal antibodies at a 1:1000 dilution in TBST-BSA for 1 h at room temperature followed by eight washes in TBST. Overlays were visualized using Immobilon Western Chemiluminescent horseradish peroxidase substrate and protein–lipid interaction was detected using a GE ImageQuant LAS 3000 imager."}, "GST-ARV1-N98": {"target": "T2, GST-ARV1-N98 (Homo sapiens, UniProt Q9H2C2)", "T2 construct": "Expresses amino-terminal 98 amino acids of ARV1; made in house; host or cells: E. coli BL21 (pGEX-4T1)", "T2 sequence (Q9H2C2 1-98)": "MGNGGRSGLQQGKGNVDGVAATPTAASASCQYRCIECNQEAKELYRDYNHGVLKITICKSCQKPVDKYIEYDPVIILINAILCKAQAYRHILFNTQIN", "test": "Lipid overlay far western", "format": "binding", "settings": "lipid-embedded membrane strips, incl. sphingolipid strip", "experimental": "as §1"}, "GST-ARV1-N70": {"target": "T3, GST-ARV1-N70 (Homo sapiens, UniProt Q9H2C2)", "T3 construct": "Expresses amino-terminal 70 amino acids of ARV1; made in house; host or cells: E. coli BL21 (pGEX-4T1)", "T3 sequence (Q9H2C2 1-70)": "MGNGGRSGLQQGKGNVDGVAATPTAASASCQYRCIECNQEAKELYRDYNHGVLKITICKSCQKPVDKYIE", "test": "Lipid overlay far western, truncation", "format": "binding", "settings": "compared to ARV1-N98", "experimental": "as §1"}, "GST-ARV1-N98 K67A": {"target": "T4, GST-ARV1-N98 K67A (Homo sapiens, UniProt Q9H2C2, K67A)", "T4 construct": "Expresses amino-terminal 98 amino acids of ARV1; made in house; host or cells: E. coli BL21 (pGEX-4T1)", "T4 sequence (Q9H2C2 1-98 K67A)": "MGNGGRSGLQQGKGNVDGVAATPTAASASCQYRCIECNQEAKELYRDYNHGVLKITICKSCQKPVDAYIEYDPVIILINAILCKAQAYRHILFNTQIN", "test": "Liposome binding assay, site-directed mutant", "settings": "PC:PL, sulfatide liposomes", "experimental": "(§2) Lyophilized lipids were reconstituted in chloroform at 10 mg/ml and stored in glass tubes with Teflon tops at −20 °C until use. One milliliter of 10 mg/ml stock was dried under a stream of nitrogen in a glass tube until a lipid cake/film was formed. The lipid cake was then rehydrated in BLT rehydration buffer (5 mM Tris/HCl, pH 7.4, containing 150 mM NaCl) to a concentration of 1 mg/ml. Lipid suspensions were subjected to three freeze/thaw cycles using a dry ice ethanol/[…] water bath to encapsulate the buffer and improve liposome formation. The suspension and lipid extruder were equilibrated to temperature for 10 min and liposomes were extruded using […] polycarbonate membranes (Avestin). Liposomes were made by mixing stock lipid PL (1 mg/ml) with PC (10 mg/ml).\n(§3) Sulfatide liposomes were generated as previously described ([94]). All lipids were resuspended in organic solvents as per manufacturer’s instructions. Liposomes were prepared with mixing PC:PE:cholesterol:sulfatides (1:1:1:4) and subsequently dried down by lyophilization to obtain lipid films. Lipids were hydrated in 20 mM Tris–HCL, pH 6.8, containing 100 mM NaCl at a concentration of 1 mg/ml.\n(§4) PI(4)P liposomes were generated as described by Knodler et al. ([95]), with some modifications. Briefly, liposomes were generated at a lipid concentration of 10 mg/ml. Liposomes contained PC (60%), PI (30%), PE (8%), and PI(4)P (2%). Lipid solution was dried down and resuspended in liposome buffer (20 mM Hepes–HCL, pH 7.4, containing 1 mM EDTA and 50 mM potassium acetate). Liposomes were formed by sonication on ice.\n(§5) Liposomes were serial diluted in floatation buffer (100 mM NaCl, 2 mM EDTA, pH 5.5) to a final concentration of 0.1 mg/ml. Nine hundred microliters of liposome solution was placed in clear ultracentrifuge tubes and mixed with 100 μl of 0.01 μg/ml of protein. The liposome/protein solution was incubated at room temperature for 1 h with occasional shaking. An initial 100 μl of liposome/protein solution (liposomes) was removed and the remaining 900 μl was centrifuged at 50,000g for 20 min at 4 °C. The pellet was resuspended in 800 μl of fresh floatation buffer, centrifuged as above, and 800 μl of supernatant was removed (wash 1). This was repeated a second time and again 800 μl of supernatant was removed (wash 2). The final pellet was resuspended in 100 μl of floatation buffer plus SDS treatment buffer (pellet). Thirty microliters of each fraction was run on a 15% SDS-PAGE gel and probed with an anti-GST monoclonal antibody at a 1:1500 dilution."}, "GST-ARV1-N98 K54/K59A": {"target": "T5, GST-ARV1-N98 K54/K59A (Homo sapiens, UniProt Q9H2C2, K54A/K59A)", "T5 construct": "Expresses amino-terminal 98 amino acids of ARV1; made in house; host or cells: E. coli BL21 (pGEX-4T1)", "test": "Liposome binding assay, site-directed mutant", "settings": "PC:PL, sulfatide liposomes", "experimental": "as §2, §3, §4, §5"}, "GST-ARV1-N98 N94A": {"target": "T6, GST-ARV1-N98 N94A (Homo sapiens, UniProt Q9H2C2, N94A)", "T6 construct": "Expresses amino-terminal 98 amino acids of ARV1; made in house; host or cells: E. coli BL21 (pGEX-4T1)", "T6 sequence (Q9H2C2 1-98 N94A)": "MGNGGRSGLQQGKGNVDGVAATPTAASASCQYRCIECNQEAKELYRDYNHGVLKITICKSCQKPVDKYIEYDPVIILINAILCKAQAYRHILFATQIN", "test": "Liposome binding assay, site-directed mutant", "settings": "PC:PL, sulfatide or PI(4)P liposomes", "experimental": "as §2, §3, §4, §5"}, "GST-ARV1-N98 C34/C37A": {"target": "T7, GST-ARV1-N98 C34/C37A (Homo sapiens, UniProt Q9H2C2, C34A/C37A)", "T7 construct": "Expresses amino-terminal 98 amino acids of ARV1; made in house; host or cells: E. coli BL21 (pGEX-4T1)", "T7 sequence (Q9H2C2 1-98 C34A/C37A)": "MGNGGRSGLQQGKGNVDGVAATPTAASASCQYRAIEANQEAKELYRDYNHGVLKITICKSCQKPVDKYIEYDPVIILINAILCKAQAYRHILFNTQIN", "test": "Liposome binding assay, site-directed mutant", "settings": "PC:PL, sulfatide or PI(4)P liposomes", "experimental": "as §2, §3, §4, §5"}, "GST-ARV1-N98 C58/C61A": {"target": "T8, GST-ARV1-N98 C58/C61A (Homo sapiens, UniProt Q9H2C2, C58A/C61A)", "T8 construct": "Expresses amino-terminal 98 amino acids of ARV1; made in house; host or cells: E. coli BL21 (pGEX-4T1)", "T8 sequence (Q9H2C2 1-98 C58A/C61A)": "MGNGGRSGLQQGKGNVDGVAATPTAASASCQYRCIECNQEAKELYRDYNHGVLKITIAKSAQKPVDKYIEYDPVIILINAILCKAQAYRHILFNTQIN", "test": "Liposome binding assay, site-directed mutant", "settings": "PC:PL, sulfatide or PI(4)P liposomes", "experimental": "as §2, §3, §4, §5"}, "GST-Annexin A2": {"target": "GST-Annexin A2 (Homo sapiens, UniProt P07355)", "sequence (P07355 whole entry)": "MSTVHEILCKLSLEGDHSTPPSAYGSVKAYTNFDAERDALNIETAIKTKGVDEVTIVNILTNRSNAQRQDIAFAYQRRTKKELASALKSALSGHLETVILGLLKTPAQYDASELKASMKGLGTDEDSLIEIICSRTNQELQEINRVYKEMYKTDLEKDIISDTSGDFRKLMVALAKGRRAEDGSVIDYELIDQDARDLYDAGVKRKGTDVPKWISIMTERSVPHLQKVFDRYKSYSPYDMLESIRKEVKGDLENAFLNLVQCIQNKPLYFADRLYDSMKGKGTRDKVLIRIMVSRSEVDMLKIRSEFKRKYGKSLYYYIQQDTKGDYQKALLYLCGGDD", "test": "Lipid overlay far western (positive control protein)", "format": "binding", "settings": "lipid-embedded membrane strips, incl. sphingolipid strip", "experimental": "as §1"}, "6XHIS-ARV1-N98 C58/C61A": {"target": "T9, 6XHIS-ARV1-N98 C58/C61A (Homo sapiens, UniProt Q9H2C2, C58A/C61A)", "T9 construct": "Expressing amino-terminal 98 amino acids of ARV1; made in house; host or cells: E. coli BL21 (pET-28a(+))", "T9 sequence (Q9H2C2 1-98 C58A/C61A)": "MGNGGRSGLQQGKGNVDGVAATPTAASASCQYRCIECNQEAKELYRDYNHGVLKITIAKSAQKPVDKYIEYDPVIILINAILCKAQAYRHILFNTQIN", "test": "Lipid overlay far western, site-directed mutant", "format": "binding", "settings": "compared to the ARV1-N98 protein", "experimental": "as §1"}, "6XHIS-ARV1-N98 N94Q": {"target": "T10, 6XHIS-ARV1-N98 N94Q (Homo sapiens, UniProt Q9H2C2, N94Q)", "T10 construct": "Expressing amino-terminal 98 amino acids of ARV1; made in house; host or cells: E. coli BL21 (pET-28a(+))", "T10 sequence (Q9H2C2 1-98 N94Q)": "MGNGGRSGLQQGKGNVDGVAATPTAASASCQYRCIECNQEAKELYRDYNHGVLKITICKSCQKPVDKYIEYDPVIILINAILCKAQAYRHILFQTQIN", "test": "Lipid overlay far western, site-directed mutant", "format": "binding", "settings": "compared to the ARV1-N98 protein", "experimental": "as §1"}, "6XHIS-ARV1-N98 C34/C37A": {"target": "T11, 6XHIS-ARV1-N98 C34/C37A (Homo sapiens, UniProt Q9H2C2, C34A/C37A)", "T11 construct": "Expressing amino-terminal 98 amino acids of ARV1; made in house; host or cells: E. coli BL21 (pET-28a(+))", "T11 sequence (Q9H2C2 1-98 C34A/C37A)": "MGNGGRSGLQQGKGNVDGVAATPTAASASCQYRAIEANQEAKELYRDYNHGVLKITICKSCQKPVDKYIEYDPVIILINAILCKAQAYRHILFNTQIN", "test": "Lipid overlay far western, site-directed mutant", "format": "binding", "settings": "compared to the ARV1-N98 protein", "experimental": "as §1"}, "6XHIS-ARV1-N98 K67A": {"target": "T12, 6XHIS-ARV1-N98 K67A (Homo sapiens, UniProt Q9H2C2, K67A)", "T12 construct": "Expressing amino-terminal 98 amino acids of ARV1; made in house; host or cells: E. coli BL21 (pET-28a(+))", "T12 sequence (Q9H2C2 1-98 K67A)": "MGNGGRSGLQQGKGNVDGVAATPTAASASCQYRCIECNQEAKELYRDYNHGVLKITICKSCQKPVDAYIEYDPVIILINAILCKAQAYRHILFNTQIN", "test": "Lipid overlay far western, site-directed mutant", "format": "binding", "settings": "compared to the ARV1-N98 protein", "experimental": "as §1"}, "6XHIS-ARV1-N98 K54/K59A": {"target": "T13, 6XHIS-ARV1-N98 K54/K59A (Homo sapiens, UniProt Q9H2C2, K54A/K59A)", "T13 construct": "Expressing amino-terminal 98 amino acids of ARV1; made in house; host or cells: E. coli BL21 (pET-28a(+))", "T13 sequence (Q9H2C2 1-98 K54A/K59A)": "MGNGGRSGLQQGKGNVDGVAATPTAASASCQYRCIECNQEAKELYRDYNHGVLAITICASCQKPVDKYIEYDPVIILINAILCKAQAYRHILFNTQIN", "test": "Lipid overlay far western, site-directed mutant", "format": "binding", "settings": "compared to the ARV1-N98 protein", "experimental": "as §1"}}}
{"substance": "sulfatide", "values": [{"measurement": "lipid-protein interaction", "setting": "[1]", "result": "interacted"}, {"measurement": "lipid-protein interaction", "setting": "GST-ARV1-N98", "result": "interacted"}, {"measurement": "change of lipid-protein interaction", "setting": "GST-ARV1-N70", "result": "loss of interaction"}, {"measurement": "liposome binding", "setting": "GST-ARV1-N98 K67A", "result": "unable to bind"}, {"measurement": "liposome binding", "setting": "GST-ARV1-N98 K54/K59A", "result": "unable to bind"}, {"measurement": "liposome binding", "setting": "GST-ARV1-N98 N94A", "result": "very weak"}, {"measurement": "liposome binding", "setting": "GST-ARV1-N98 C34/C37A", "result": "not"}, {"measurement": "liposome binding", "setting": "GST-ARV1-N98 C58/C61A", "result": "did not bind"}, {"measurement": "lipid-protein interaction", "setting": "GST-Annexin A2", "result": "interacted"}, {"measurement": "change of lipid-protein interaction", "setting": "6XHIS-ARV1-N98 C58/C61A", "result": "eliminated any interaction"}, {"measurement": "change of lipid-protein interaction", "setting": "6XHIS-ARV1-N98 N94Q", "result": "more strongly"}, {"measurement": "change of lipid-protein interaction", "setting": "6XHIS-ARV1-N98 C34/C37A", "result": "eliminated any interaction"}, {"measurement": "change of lipid-protein interaction", "setting": "6XHIS-ARV1-N98 K67A", "result": "weakened"}, {"measurement": "change of lipid-protein interaction", "setting": "6XHIS-ARV1-N98 K54/K59A", "result": "abolished"}]}
